Experimental data as given in PubChem BioAssay (NCI).
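Growth conditions: 96-well plates. Treatment: test compound, 48 hours, 5 concentrations. Analysis: linear interpolation between bracketing concentrations; unreached endpoints set to highest concentration. GI50 = concentration required for 50% inhibition of growth. TGI marks complete inhibition of growth.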

Key:
Experiment in all cases: inhibition of tumour cell growth, NCI panel, 48 h
MDA-MB-435 = system: MDA-MB-435
OVCAR-3 ovarian = system: OVCAR-3 ovarian
A549 NSCLC = system: A549 NSCLC
OVCAR-8 ovarian = system: OVCAR-8 ovarian
SR leukemia = system: SR leukemia
A498 renal = system: A498 renal
786-0 renal = system: 786-0 renal
MDA-MB-231 breast = system: MDA-MB-231 breast

## CCOC(=O)C1CCCCN1C(=O)c1ccc(Nc2cnc3cc(C(F)(F)F)ccc3n2)cc1 (centres undefined)
MDA-MB-435
  GI50: 14.7 µM
  TGI: 28.3 µM
OVCAR-3 ovarian
  GI50: 15500 nM
  TGI: 31.6 µM
A549 NSCLC
  GI50: 15000 nM
  TGI: 44.2 µM
OVCAR-8 ovarian
  GI50: 33.2 µM
  TGI: > 100 µM
SR leukemia
  GI50: 3800 nM
  TGI: 19.1 µM
A498 renal
  GI50: 10300 nM
  TGI: 22.9 µM
786-0 renal
  GI50: 4820 nM
  TGI: 16.4 µM
MDA-MB-231 breast
  GI50: 2860 nM
  TGI: 5.66 µM

## COc1ccccc1CNCCCN1C(=O)c2ccc3c4c(ccc(c24)C1=O)C(=O)N(CCCN)C3=O
MDA-MB-435
  GI50: 0.196 µM
  TGI: 0.413 µM
OVCAR-3 ovarian
  GI50: 329 nM
  TGI: 1.06 µM
A549 NSCLC
  GI50: 1870 nM
  TGI: 4.11 µM
OVCAR-8 ovarian
  GI50: 0.49 µM
  TGI: 3.81 µM
SR leukemia
  GI50: 243 nM
  TGI: 1.36 µM
A498 renal
  GI50: 1570 nM
  TGI: 3.04 µM
786-0 renal
  GI50: 1470 nM
  TGI: 4.89 µM
MDA-MB-231 breast
  GI50: 1670 nM
  TGI: 10.9 µM

## Cc1nn(C)c(COc2ccc(N3CCN(S(=O)(=O)N(C)C)CC3)cc2)c1-c1cccc2c(CCCOc3cccc4ccccc34)c(C(=O)O)n(CCN3CCOCC3)c12
MDA-MB-435
  GI50: 3.4 µM
  TGI: 12 µM
OVCAR-3 ovarian
  GI50: 2720 nM
  TGI: 8.57 µM
A549 NSCLC
  GI50: 4490 nM
  TGI: 16.9 µM
OVCAR-8 ovarian
  GI50: 3.51 µM
  TGI: 14.7 µM
SR leukemia
  GI50: 3130 nM
  TGI: 11 µM
A498 renal
  GI50: 2300 nM
  TGI: 6.59 µM
786-0 renal
  GI50: 2520 nM
  TGI: 6.97 µM
MDA-MB-231 breast
  GI50: 2260 nM
  TGI: 5.9 µM

## COC(=O)C1=C(C)NC(C)=C(C(=O)OCC(C)C)C1c1ccccc1[N+](=O)[O-] (centres undefined)
MDA-MB-435
  GI50: 4.25 µM
  TGI: 17.6 µM
OVCAR-3 ovarian
  GI50: 6350 nM
  TGI: 19.6 µM
A549 NSCLC
  GI50: 4520 nM
  TGI: 18.9 µM
OVCAR-8 ovarian
  GI50: 4.33 µM
  TGI: 21 µM
SR leukemia
  GI50: 2530 nM
  TGI: 11.3 µM
A498 renal
  GI50: 10700 nM
  TGI: 23.7 µM
786-0 renal
  GI50: 3550 nM
  TGI: 12.6 µM
MDA-MB-231 breast
  GI50: 4040 nM
  TGI: 17.1 µM

## COC(=O)c1cc2ccccc2c2c3c(ccc12)OCO3
MDA-MB-435
  GI50: 531 µM
  TGI: > 1000 µM
OVCAR-3 ovarian
  GI50: 68700 nM
  TGI: 700 µM
A549 NSCLC
  GI50: 117000 nM
  TGI: > 1000 µM
OVCAR-8 ovarian
  GI50: 41.1 µM
  TGI: > 1000 µM
SR leukemia
  GI50: 167000 nM
  TGI: > 1000 µM
A498 renal
  GI50: 15500 nM
  TGI: 129 µM
786-0 renal
  GI50: 56100 nM
  TGI: 477 µM
MDA-MB-231 breast
  GI50: 59700 nM
  TGI: > 1000 µM

## COc1cccc(-c2cc3c4c(nc5ccccc53)C(=O)c3cccnc3-c4n2)c1
MDA-MB-435
  GI50: 1.18 µM
  TGI: 2.57 µM
OVCAR-3 ovarian
  GI50: 300 nM
A549 NSCLC
  GI50: 1440 nM
  TGI: 3.82 µM
OVCAR-8 ovarian
  GI50: 1.69 µM
  TGI: 7.08 µM
A498 renal
  GI50: 14100 nM
  TGI: 29.5 µM
786-0 renal
  GI50: 2030 nM
  TGI: 4.48 µM
MDA-MB-231 breast
  GI50: 4610 nM
  TGI: > 37.8 µM

## C=C1CC[C@@H]2[C@](C)(COC(C)=O)[C@H](OC(C)=O)CC[C@@]2(C)[C@@H]1CC(Nc1ccc(S(=O)(=O)Nc2ccc(Cl)nn2)cc1)C1=CCOC1=O (some centres undefined)
MDA-MB-435
  GI50: 1.4 µM
  TGI: 3.17 µM
OVCAR-3 ovarian
  GI50: 1220 nM
  TGI: 2.51 µM
A549 NSCLC
  GI50: 2960 nM
  TGI: 10.7 µM
SR leukemia
  GI50: 1350 nM
  TGI: 8.1 µM
A498 renal
  GI50: 1400 nM
  TGI: 4.26 µM
786-0 renal
  GI50: 1690 nM
  TGI: 3.14 µM
MDA-MB-231 breast
  GI50: 1900 nM
  TGI: 3.96 µM

## CCOC(=O)c1cc2c(n1Cc1cc(OC)c(OC)c(OC)c1)-c1oncc1CCC2
OVCAR-3 ovarian
  GI50: 90.1 nM
  TGI: 0.399 µM
A549 NSCLC
  GI50: 234 nM
  TGI: 65.4 µM
OVCAR-8 ovarian
  GI50: 0.332 µM
  TGI: > 49.7 µM
SR leukemia
  GI50: 46.4 nM
  TGI: 5.5 µM
A498 renal
  GI50: 60.2 nM
  TGI: 0.435 µM
786-0 renal
  GI50: 583 nM
  TGI: > 35.9 µM
MDA-MB-231 breast
  GI50: 372 nM
  TGI: 2.46 µM

## [O-]c1ccccc1/C=N/C(/N=C/c1ccccc1[O-])c1ccccc1O.[O-]c1ccccc1/C=N/C(/N=C/c1ccccc1[O-])c1ccccc1O.[Zr+4]
MDA-MB-435
  GI50: 28.2 µM
  TGI: > 100 µM
A549 NSCLC
  GI50: 40000 nM
  TGI: > 100 µM
OVCAR-8 ovarian
  GI50: 26.7 µM
  TGI: > 100 µM
786-0 renal
  GI50: 41600 nM
  TGI: > 100 µM
MDA-MB-231 breast
  GI50: 58200 nM
  TGI: > 100 µM

## COc1ccc(C(=O)/C=C/c2cccc(Nc3ccnc4cc(Cl)ccc34)c2)cc1
MDA-MB-435
  GI50: 2.13 µM
  TGI: > 100 µM
A549 NSCLC
  GI50: 2780 nM
  TGI: > 100 µM
SR leukemia
  GI50: 491 nM
  TGI: 3.77 µM
A498 renal
  GI50: 3000 nM
  TGI: 55.3 µM
786-0 renal
  GI50: 1480 nM
  TGI: 4.27 µM

## O=[N+]([O-])c1cc(Cl)cnc1Br
MDA-MB-435
  TGI: 5.4 µM
OVCAR-3 ovarian
  TGI: 6.2 µM
A549 NSCLC
  TGI: 8.26 µM
OVCAR-8 ovarian
  TGI: 5.02 µM
A498 renal
  TGI: 32 µM
786-0 renal
  TGI: 20.2 µM
MDA-MB-231 breast
  TGI: 12.2 µM

## Cc1nn(-c2ccc([N+](=O)[O-])cc2)c2ncnc(N/N=C/c3ccccc3O)c12
MDA-MB-435
  GI50: 0.654 µM
  TGI: > 100 µM
OVCAR-3 ovarian
  GI50: 262 nM
  TGI: 1.56 µM
A549 NSCLC
  GI50: 563 nM
  TGI: 5.41 µM
SR leukemia
  GI50: 166 nM
A498 renal
  GI50: 2920 nM
  TGI: > 66.9 µM
786-0 renal
  GI50: 539 nM
  TGI: 3.41 µM
MDA-MB-231 breast
  GI50: 482 nM
  TGI: 3.97 µM

## Cc1[nH]c(=O)nc(Nc2ccc(Cl)cc2)c1C(=O)N1CCN(CCO)CC1
MDA-MB-435
  GI50: > 100 µM
  TGI: > 100 µM
OVCAR-3 ovarian
  GI50: > 100000 nM
  TGI: > 100 µM
A549 NSCLC
  GI50: > 100000 nM
  TGI: > 100 µM
OVCAR-8 ovarian
  GI50: 72 µM
  TGI: > 100 µM
A498 renal
  GI50: 42200 nM
  TGI: > 100 µM
786-0 renal
  GI50: 50700 nM
  TGI: > 100 µM
MDA-MB-231 breast
  GI50: 46300 nM
  TGI: > 100 µM

## COc1cnc2c(c1)C(=O)c1c-2n(CCCNC2=NCCS2)c(=O)c2cc(Cl)ccc12
MDA-MB-435
  GI50: 1.43 µM
  TGI: 2.76 µM
OVCAR-3 ovarian
  GI50: 1350 nM
  TGI: 3.07 µM
A549 NSCLC
  GI50: 1200 nM
  TGI: 2.51 µM
A498 renal
  GI50: 1290 nM
  TGI: 19.8 µM
786-0 renal
  GI50: 239 nM
  TGI: 1.72 µM
MDA-MB-231 breast
  GI50: 1520 nM
  TGI: 3.07 µM

## C[C@]12CC[C@@H]3c4ccc(O)cc4CC[C@H]3[C@@H]1Cc1cnc(N)nc12
MDA-MB-435
  GI50: 16.2 µM
  TGI: 43.5 µM
OVCAR-3 ovarian
  GI50: 23000 nM
  TGI: 58.7 µM
A549 NSCLC
  GI50: 44000 nM
  TGI: > 100 µM
OVCAR-8 ovarian
  GI50: 92.9 µM
  TGI: > 100 µM
SR leukemia
  GI50: 7060 nM
  TGI: 39.2 µM
786-0 renal
  GI50: 23300 nM
  TGI: 59.3 µM
MDA-MB-231 breast
  GI50: 13700 nM
  TGI: 32.8 µM

## CCN1C(=O)N(CC)C2C1NN=c1s/c(=C\c3ccccn3)c(=O)n12 (centres undefined)
OVCAR-3 ovarian
  GI50: 403 nM
  TGI: 2.2 µM
A549 NSCLC
  GI50: 2150 nM
  TGI: > 100 µM
OVCAR-8 ovarian
  GI50: 3.98 µM
  TGI: > 100 µM
SR leukemia
  GI50: 455 nM
  TGI: > 100 µM
A498 renal
  GI50: 184 nM
  TGI: 2.74 µM
786-0 renal
  GI50: 4700 nM
  TGI: > 100 µM
MDA-MB-231 breast
  GI50: 4050 nM
  TGI: > 100 µM

## Nc1ncnc2c1c(-c1ccc(Oc3ccccc3)cc1)nn2C[C@@H]1SSC[C@H]1O
OVCAR-3 ovarian
  GI50: 819 nM
  TGI: 9.76 µM
A549 NSCLC
  GI50: 1860 nM
  TGI: 4.69 µM
OVCAR-8 ovarian
  GI50: 3.35 µM
  TGI: 14.3 µM
SR leukemia
  GI50: 163 nM
  TGI: 11.8 µM
A498 renal
  GI50: 2180 nM
  TGI: 5.53 µM
786-0 renal
  GI50: 2410 nM
  TGI: 8.31 µM
MDA-MB-231 breast
  GI50: 1800 nM
  TGI: 5.45 µM
